Like-named read-outs stand apart in the source and are kept apart here.
Key:
[1] = subcutaneous; patient not affected by ACTH or Prednisone; several weeks of treatment; cited from earlier work
in vivo = conditions: male, beagle, dog
Excerpt: This study was undertaken to determine the safety of Products X and Y, and to determine the pharmacokinetic profiles of Products X, Y, and a commercially available oral glucosamine formulation (Glucosamine) following a single oral and intravenous administration to beagle dogs. The pharmacokinetic profiles were examined for indications of sustained or slow release of glucosamine by Products X and Y.
A total of nine (9) male Beagle dogs were used during this study. The animals were assigned to three treatment groups of 3 animals/group. Group 1 received low dose Products X, Y and Glucosamine by oral administration on Days 1, 8 and 15, respectively. Group 2 animals received high dose Products X and Y by oral administration on Days 1 and 8, respectively, and Group 3 animals received low dose Products X and Y by intravenous injection on Days 1 and 8, respectively. Low and high dose animals were administered nominal dose levels of 21.4 mg/kg and 214 mg/kg, respectively. These levels approximated 1× and 10× the standard daily oral glucosamine consumption (1500 mg) for an average human (70 kg standard body weight). The commercial glucosamine was assumed to contain 100% active ingredient.
The following parameters were recorded throughout the study: mortality, clinical signs, body weight and clinical pathology (hematology, coagulation and clinical chemistry). Serial blood samples were collected from all animals for pharmacokinetic profiling following each dosing.
Samples were collected via the jugular vein, at: 0 (pre-dose), 15, 30, 60, 120 minutes post-dose. A 5 minute post-dose sample was included for Group 3.

[2] = humans, cited from earlier work
[3] = dogs, cited from earlier work

Row | Structure (SMILES) | symptoms of Crohn's Disease [1] | time of peak serum glucosamine level post-dose (in vivo) [min] | AUC (in vivo; po, 21.4 mg/kg) [ng·h/mL] | concentration at 120 minutes (in vivo; po, 21.4 mg/kg) [ng/mL] | ratio of glucosamine delivered into the serum (oral glucosamine = 100) (in vivo; po, 21.4 mg/kg) | group mean serum glucosamine level at 120 minutes post-dose (in vivo; po, 21.4 mg/kg, 120 minutes) [ng/mL] | glucosamine found in urine ([2]; after 144 hours) [%] | gastrointestinal absorption [2] [%] | glucosamine found in urine ([3]; after 144 hours) | gastrointestinal absorption [3]
1 | Cl.N[C@H]1C(O)O[C@H](CO)[C@@H](O)[C@@H]1O (stereo partly drawn) [D-glucosamine-HCl] | symptoms stopped | – | – | – | – | – | – | – | – | –
2 | N[C@H]1C(O)O[C@H](CO)[C@@H](O)[C@@H]1O (stereo partly shown) [Glucosamine, glucosamine] | – | 60 | 1650 | 533 ± 188 | 100 | 533 | ~11 | ~90 | about 10% | about 87%

From patent US20050070500A1, “Method of modulating release of saccharides and uses thereof” (priority 2001, published 2005)
